# Test results reported in patent US20100204340A1 (priority 2009, published 2010).
# Key:
# [1] = tested on: Propionibacterium acnes ATCC 11827; test: Disc diffusion method, zone of inhibition; type: cell-based
# Description: Method: Disc diffusion method was done to study Minimum inhibitory concentration (MIC).
# Materials • 1. Propionibacterium acnes ATCC 11827 • 2. Physiological saline or Buffered peptone water (BPW). • 3. Reinforced clostridium medium (RCM) Hi-media • 4. Reinforced clostridium agar (RCA) Hi-media • 5. Anaerobic chamber. • 6. Gassing manifold Nitrogen, mixed gases. • 7. Spectrophotometer (600 nm to 625 nm). • 8. Sterile Petri plates (150 mm×90 mm). • 9. Sterile micro pipettes and sterile micro tips. • 10. Sterile disc 6 mm. • 11. Samples tested: Resveratrol (Batch No.: C81173) and 3-Hydroxypsterostilbene (Batch No.: P80096)
# The chamber used in the study is of COY LABORATORY USA model 8301-230, 3 ft polymer. The anaerobic chamber consists of a main chamber where in all the operations and incubation of the culture are carried out and a transfer chamber which is meant for taking the materials in and out of the equipment. The main chamber is provided with a heated fan box in order to maintain the required temperature (37° C.) and to circulate the air in the chamber. A catalyst stakpak is fixed to this fan box which consists of palladium catalyst, which is meant to convert oxygen to water molecules by reacting with hydrogen molecules. The anaerobic condition in the chamber for this is maintained by initialization with Nitrogen gas and then by the Mixture gas of N2+H2+CO2 in the proportion 80:10:10. Two gas tank arrangements have been done where only N2 is connected to the transfer chamber.
# To carry out the antimicrobial activity of the products against P.acnes the organism was first cultured in the anaerobic conditions. Culture was inoculated into pre-sterile reinforced Clostridium medium (RCM) and incubated at anaerobic condition for 24 hrs. 24 hr to 48 hrs culture at Optical Density @625 nm was determined 0.632 (1:2 dilution) 4.0 Macfarland standards.
# 30 ml of sterilized RCM was poured into the pre-sterile Petri plates inside the chamber and allowed to solidify. The culture was inoculated (0.2 ml/plate) and spread evenly. After 30 minutes, antibacterial sterile discs (6 mm) were dispensed. […] 10 μl of the prepared sample and controls were dispensed onto the discs. The plates were incubated inside the anaerobic chamber at 37° C. for 24 to 48 hours duration.
# [2] = Pharmacokinetics in serum and urine upon oral administration; type: in vivo, rats; settings: rat, in vivo, po, 100 mg/kg
# Method: The compound in its free and conjugated form is freely absorbed into systemic circulation with the glucoronide detected up to 72 hours.
# (FIG. 4). The compound in its free and conjugated form appears in systemic circulation within 15 minutes of administration.
# [3] = tested on: B16F1 mouse melanoma cell line; test: Melanin inhibitory assay; type: cell-based; settings: B16-F1
# tyrosinase = test: Anti tyrosinase activity; type: biochemical
# [4] = Oxygen Radical Absorbance Capacity (ORAC)
# collagenase = test: Anti collagenase assay; type: biochemical
# Elastase = test: Anti Elastase assay; type: biochemical
# α-glucosidase = test: Anti α-glucosidase activity; type: biochemical
# [5] = tested on: Bacterial reverse mutation; test: Bacterial reverse mutation assay (AMES); type: cell-based; settings: presence and absence of metabolic activation, upto 415 μg/ml
# Method: 3-hydroxypterostilbene is non mutagenic in the Bacterial reverse mutation assay (AMES), both in the presence and absence of metabolic activation, upto a workable concentration of 415 μg/ml.
# in vivo = settings: both sexes, Sprague Dawley, rat, po
# Method: (§1) Repeated dose 90 day Oral toxicity study for 3HPT in Sprague Dawley rats: The study was conducted to evaluate the possible health hazards likely to arise from repeated exposure to 3HPT over a relatively limited period of time. The study was conducted in six groups consisting of 120 rats with 60 males and 60 females. Group-I, I (R), II, III, IV and IV (R) served as Control, Control Recovery, Low dose (20 mg/kg Bwt), Mid dose (80 mg/kg Bwt), High dose (200 mg/kg Bwt) and High dose Recovery (200 mg/kg Bwt) groups respectively. The test item or vehicle was administered through oral route by gavage to animals daily for 90 days. The animals of Control group and Control recovery group were administered with Corn oil. The vehicle and test item administration to Control Recovery and High dose Recovery group animals respectively was stopped after 90 days of administration and observed for another 28 days to evaluate the effects during recovery period. […] Body weights and food consumptions were recorded at weekly intervals. On completion of 90 days for treatment groups or 118 days for recovery groups respectively, the blood samples were collected from all the animals and subjected to haematological and clinical chemistry evaluation. At termination the animals were humanely sacrificed and subjected to necropsy examination. […]
# Sprague Dawley rats = test: in vivo; settings: rat, po
# Method: as §1
# [6] = sample 5.0 % (w/v) in DMSO, 10 μl per 6 mm disc
smiles,measurement,setting,value
COc1cc(/C=C/c2ccc(O)c(O)c2)cc(OC)c1 [3-hydroxypterostilbene],Zone of inhibition,[1]; sample 0.078 % (w/v) in DMSO,No zone
same,Zone of inhibition,[1]; sample 0.156 % (w/v) in DMSO,No zone
same,Zone of inhibition,"[1]; sample 0.31 % (w/v) in DMSO (3.12 mg/ml), listed as 3-Hydroxy Pterostilbene",10.0 mm
same,Zone of inhibition,"[1]; sample 0.31 % (w/v) in DMSO (3.12 mg/ml), listed as 3-Hydroxy pterostilbene",10 mm
same,Zone of inhibition,[1]; sample 0.625 % (w/v) in DMSO,13.0 mm
same,Zone of inhibition,[1]; sample 1.25 % (w/v) in DMSO,15.0 mm
same,Zone of inhibition,[1]; sample 2.5 % (w/v) in DMSO,17.0 mm
same,Zone of inhibition,[1]; [6],18.0 mm
same,Oral bioavailability (free form and glucoronide),[2],orally bioavailable
same,Time to appearance in systemic circulation (free and conjugated form),[2],≤ 15 min
same,Urinary excretion form,[2],excreted predominantly as glucoronides in the urine
same,IC50,[3],0.7 µg/mL
same,"IC50, anti tyrosinase activity",tyrosinase,IC50 is 2 μg/ml
same,Oxygen Radical Absorbance Capacity (ORAC),[4],13334 ± 323 μmol TE/100 g
same,"SC50, DPPH scavenging",DPPH scavenging assay,SC50 is 1.34 μg/ml
same,"IC50, anti collagenase",collagenase,IC50 is 90 μg/ml
same,"IC50, anti Elastase",Elastase,IC50 is 82 μg/ml
same,"IC50, anti α-glucosidase",α-glucosidase,IC50 is 203.7 μg/ml
same,Mutagenicity,[5],non mutagenic
same,NOAEL at 90 days,in vivo,200 mg/kg
same,Necropsy and histopathology examination of tissues and organs,Sprague Dawley rats,did not reveal any pathological changes
"Oc1ccc(/C=C/c2cc(O)cc(O)c2)cc1 [Resveratrol, 3,4′,5-trihydroxy-trans-stilbene]",Concentration required to produce a zone of inhibition of 10 mm,"[1]; disc diffusion, 0.625% w/v",6.25 mg/mL
same,Zone of inhibition,[1]; sample 0.078 % (w/v) in DMSO,No zone
same,Zone of inhibition,[1]; sample 0.156 % (w/v) in DMSO,No zone
same,Zone of inhibition,[1]; sample 0.31 % (w/v) in DMSO (3.12 mg/ml),No zone
same,Zone of inhibition,[1]; sample 0.625 % (w/v) in DMSO,10.0 mm
same,Zone of inhibition,[1]; sample 1.25 % (w/v) in DMSO,12.0 mm
same,Zone of inhibition,[1]; sample 2.5 % (w/v) in DMSO,13.0 mm
same,Zone of inhibition,[1]; [6],13.0 mm
